Measured values published in patent publication US20210268115A1 (priority 2020, published 2021).
Read-outs that look alike come from different tables or passages of the source.

Tests used:
[1] = male, Sprague-Dawley, rat, in vivo
[2] = male, Sprague-Dawley, in vivo
[3] = In vitro release of therapeutic agent from prodrugs in plasma supplemented with lipoprotein lipase; type: in vitro ADME; settings: free allopregnanolone (parent API) in dog plasma supplemented with LPL, 37° C.
Description: In order to probe the release of free drug from TG prodrugs in the systemic circulation, prodrugs are incubated with plasma (rat, dog, monkey, or human) supplemented with lipoprotein lipase (LPL, 200 IU/ml). LPL is a key enzyme required for the hydrolysis of lipoprotein associated TG in the systemic circulation and is therefore expected to be a key contributor to lipolysis of the re-esterified drug-TG construct in plasma, largely via liberation of fatty acids in the sn-1 and the sn-3 position of the TG-mimetic, prior to drug release from the 2′ position via esterase hydrolysis. LPL is active in plasma but is tethered to the luminal surface of vascular endothelial cells under physiological conditions. In the current in vitro studies, plasma is therefore supplemented with LPL to better reflect the in vivo situation.
To start hydrolysis, 10 μl of LPL solution (10,000 IU/ml) will be added to a mixture of 10 μl of prodrug solution (1 mg/ml dissolved in organic solvent, e.g., THF, DMSO, or acetonitrile) and 500 μl of blank plasma. The mixture will be incubated at 37° C. […] The supernatant will be analyzed by HPLC-MS/MS for the potential products (MG form, acid form, and free drug) of prodrug hydrolysis.
The in vitro hydrolysis profile of selected prodrug compounds will be determined in rat, dog, monkey and/or human plasma supplemented with LPL.

[4] = cynomolgus monkey, in vivo; for Prodrug detectability in plasma after dose administration / Tmax: po; for Tmax: male, 8.8 umol/kg

Structure (SMILES) | Cmax ([1]; 2 mg/kg) [nM] | Mean Plasma AUC, 0-24 h ([1]; 2 mg/kg) [nmol·h/L] | Tmax ([1]; 2 mg/kg) [h] | also measured
CCCC(=O)OCC(COC(=O)CCC)OC(=O)CC(C)CC(=O)OC(C)OC(=O)O[C@@H]1CC[C@@]2(C)[C@@H](CC[C@@H]3[C@@H]2CC[C@]2(C)[C@@H](C(C)=O)CC[C@@H]32)C1 (stereo partly shown) [Compound I-37, ALL-CMSI-C5bMe-2-TG-butyrate] | – | – | – | Cmax ([1]; po): 138 nM; Mean Plasma AUC, 0-24 h ([1]; po): 191 nmol·h/L; Tmax ([1]; po): 0.8 h
CCCCCCCC/C=C\CCCCCCCC(=O)OCC(COC(=O)CCCCCCC/C=C\CCCCCCCC)OC(=O)CCCCCCC(=O)OCO[C@@H]1CC[C@@]2(C)[C@@H](CC[C@@H]3[C@@H]2CC[C@]2(C)[C@@H](C(C)=O)CC[C@@H]32)C1 [Compound I-41, ALL-ASI-C8-2-TG-oleate] | 129 | 211 | 1.7 | –
CCC(=O)OCC(COC(=O)CC)OC(=O)C(C)CCCCCCCCC(C)C(=O)OCCCCC(=O)O[C@@H]1CC[C@@]2(C)[C@@H](CC[C@@H]3[C@@H]2CC[C@]2(C)[C@@H](C(C)=O)CC[C@@H]32)C1 (stereo partly shown) [Compound I-5, ALL-FSI5-C12a′aMe-2-TG] | 62.8 | 83.9 | 1.8 | –
CCCCCCCC/C=C\CCCCCCCC(=O)OCC(COC(=O)CCCCCCC/C=C\CCCCCCCC)OC(=O)CCCCC(=O)OCO[C@@H]1CC[C@@]2(C)[C@@H](CC[C@@H]3[C@@H]2CC[C@]2(C)[C@@H](C(C)=O)CC[C@@H]32)C1 [Compound I-40, ALL-ASI-C6-2-TG-oleate] | 165 | 265 | 1.7 | –
CCC(=O)OCC(COC(=O)CC)OC(=O)C(C)CCCCCCCCC(C)C(=O)OC(C)OC(=O)O[C@@H]1CC[C@@]2(C)[C@@H](CC[C@@H]3[C@@H]2CC[C@]2(C)[C@@H](C(C)=O)CC[C@@H]32)C1 (stereo partly shown) [Compound I-6, ALL-CMSI-C12a′aMe-2-TG] | 239 | 320.9 | 1 | –
CC(=O)[C@H]1CC[C@H]2[C@@H]3CC[C@H]4C[C@H](O)CC[C@]4(C)[C@H]3CC[C@]12C [Allopregnanalone, 5α-pregnan-3α-ol-20-one] | – | – | – | Rat - cumulative lymphatic transport: Mean, total lymphatic transport over 6 or 8 hours (%) [2]: 0.1%
CCCCCCCCCCCCCCCC(=O)OCC(COC(=O)CCCCCCCCCCCCCCC)OC(=O)CC(C)CC(=O)OC(C)OC(=O)O[C@@H]1CC[C@@]2(C)[C@@H](CC[C@@H]3[C@@H]2CC[C@]2(C)[C@@H](C(C)=O)CC[C@@H]32)C1 (stereo partly shown) [Compound I-8, ALL-CMSI-C5bMe-2-TG] | 241 | 368.1 | 2.3 | Parent API present at end of experiment (%) [3]: B (≥20% and <60% release into plasma)
CCCCCCCC(=O)OCC(COC(=O)CCCCCCC)OC(=O)CC(C)CC(=O)OC(C)OC(=O)O[C@@H]1CC[C@@]2(C)[C@@H](CC[C@@H]3[C@@H]2CC[C@]2(C)[C@@H](C(C)=O)CC[C@@H]32)C1 (stereo partly shown) [Compound I-36, ALL-CMSI-C5bMe-2-TG-octanoate] | – | – | – | Mean Plasma AUC, 0-24 h ([1]; po): 312 nmol·h/L; Tmax ([1]; po): 1.2 h; Tolerability of oral administration [4]: well-tolerated; Prodrug detectability in plasma after dose administration [4]: detectable in plasma samples after dose administration at all time-points; Tmax [4]: 4.0 h
CCCCCCCC(=O)OCC(COC(=O)CCCCCCC)OC(=O)CC(C)CC(=O)OCOC(=O)O[C@@H]1CC[C@@]2(C)[C@@H](CC[C@@H]3[C@@H]2CC[C@]2(C)[C@@H](C(C)=O)CC[C@@H]32)C1 (stereo partly shown) [Compound I-47, ALL-CASI-C5bMe-2-TG-octanoate] | – | – | – | Tolerability of oral administration [4]: well-tolerated; Prodrug detectability in plasma after dose administration [4]: detectable in plasma samples after dose administration at all time-points; Tmax [4]: 4.0 h
CC(=O)OCC(COC(C)=O)OC(=O)CC(C)CC(=O)OC(C)OC(=O)O[C@@H]1CC[C@@]2(C)[C@@H](CC[C@@H]3[C@@H]2CC[C@]2(C)[C@@H](C(C)=O)CC[C@@H]32)C1 (stereo partly shown) [Compound I-38, ALL-CMSI-C5bMe-2-TG-acetate] | – | – | – | Cmax ([1]; po): 335 nM; Mean Plasma AUC, 0-24 h ([1]; po): 450 nmol·h/L; Tmax ([1]; po): 1 h
CCCCCCCC/C=C\CCCCCCCC(=O)OCC(COC(=O)CCCCCCC/C=C\CCCCCCCC)OC(=O)CC(C)CCCCC(=O)OCO[C@@H]1CC[C@@]2(C)[C@@H](CC[C@@H]3[C@@H]2CC[C@]2(C)[C@@H](C(C)=O)CC[C@@H]32)C1 (stereo partly shown) [Compound I-42, ALL-ASI-C8bMe-2-TG-oleate] | 334 | 470 | 1.5 | –
CCCCCCCC/C=C\CCCCCCCC(=O)OCC(COC(=O)CCCCCCC/C=C\CCCCCCCC)OC(=O)CCCCC(C)CC(=O)OCOC(=O)O[C@@H]1CC[C@@]2(C)[C@@H](CC[C@@H]3[C@@H]2CC[C@]2(C)[C@@H](C(C)=O)CC[C@@H]32)C1 (stereo partly shown) [Compound I-49, ALL-CASI-C8b′Me-2-TG-oleate] | 370 | 513 | 1.7 | –
